Measurements taken from PubChem BioAssay (NCI).
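GI50 = concentration required for 50% inhibition of growth. TGI: total growth inhibition.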

Columns and labels:
Assay in all cases: inhibition of tumour cell growth, NCI panel, 384-well format
HT29 colon = system: HT29 colon
ACHN renal = system: ACHN renal
RXF 393 renal = system: RXF 393 renal
T-47D breast = system: T-47D breast
HS 578T breast = system: HS 578T breast
OVCAR-4 ovarian = system: OVCAR-4 ovarian
SW-620 colon = system: SW-620 colon
SK-MEL-2 melanoma = system: SK-MEL-2 melanoma
786-0 renal = system: 786-0 renal
MDA-MB-231 breast = system: MDA-MB-231 breast
NCI-H322M lung = system: NCI-H322M lung
OVCAR-3 ovarian = system: OVCAR-3 ovarian
SF-295 CNS = system: SF-295 CNS
SNB-75 CNS = system: SNB-75 CNS
HCT-116 colon = system: HCT-116 colon
IGROV1 ovarian = system: IGROV1 ovarian
SK-MEL-5 melanoma = system: SK-MEL-5 melanoma
UACC-62 melanoma = system: UACC-62 melanoma
EKVX NSCLC = system: EKVX NSCLC
SK-MEL-28 melanoma = system: SK-MEL-28 melanoma
HOP-62 NSCLC = system: HOP-62 NSCLC
MALME-3M melanoma = system: MALME-3M melanoma
K-562 leukemia = system: K-562 leukemia
PC-3 prostate = system: PC-3 prostate
OVCAR-8 ovarian = system: OVCAR-8 ovarian
HL-60(TB) leukemia = system: HL-60(TB) leukemia
NCI-H23 lung = system: NCI-H23 lung
SF-539 CNS = system: SF-539 CNS
COLO 205 colon = system: COLO 205 colon
KM12 colon = system: KM12 colon
HCC-2998 colon = system: HCC-2998 colon
A498 renal = system: A498 renal
U251 glioblastoma = system: U251 glioblastoma
SNB-19 CNS = system: SNB-19 CNS
HOP-92 NSCLC = system: HOP-92 NSCLC
DU-145 prostate = system: DU-145 prostate
NCI-H522 lung = system: NCI-H522 lung
CCRF-CEM leukemia = system: CCRF-CEM leukemia
M14 melanoma = system: M14 melanoma
NCI-H460 NSCLC = system: NCI-H460 NSCLC
MOLT-4 leukemia = system: MOLT-4 leukemia
HCT-15 colon = system: HCT-15 colon
UO-31 renal = system: UO-31 renal
TK-10 renal = system: TK-10 renal
A549 NSCLC = system: A549 NSCLC
RPMI-8226 leukemia = system: RPMI-8226 leukemia
CAKI-1 renal = system: CAKI-1 renal
OVCAR-5 ovarian = system: OVCAR-5 ovarian
LOX IMVI melanoma = system: LOX IMVI melanoma
NCI-H226 lung = system: NCI-H226 lung
UACC-257 melanoma = system: UACC-257 melanoma
SF-268 CNS = system: SF-268 CNS
SR leukemia = system: SR leukemia
NCI/ADR-RES ovarian = system: NCI/ADR-RES ovarian
MDA-MB-468 breast = system: MDA-MB-468 breast
MDA-MB-435 melanoma = system: MDA-MB-435 melanoma
SN12C renal = system: SN12C renal
BT-549 breast = system: BT-549 breast
SK-OV-3 ovarian = system: SK-OV-3 ovarian

In the case of `COc1cc2c(c(OC)n1)[C@]1(O)[C@H](O)[C@H](CN(C)C)[C@@H](c3ccccc3)[C@]1(c1ccc(C#N)cc1)O2`, the GI50 (HT29 colon) is reported as 22.2 nM, the TGI (HT29 colon) is reported as 15600 nM and the GI50 (ACHN renal) is reported as 10.2 nM. The TGI (ACHN renal) was 48.3 nM, the GI50 (RXF 393 renal) was under 10 nM and the TGI (RXF 393 renal) was 21.8 nM. It also gave a GI50 (T-47D breast) of under 10 nM, a TGI (T-47D breast) of 53.3 nM and a GI50 (HS 578T breast) of under 10 nM. For the same molecule, the TGI (HS 578T breast) was 40.6 nM, the GI50 (OVCAR-4 ovarian) was under 10 nM and the TGI (OVCAR-4 ovarian) was 43.4 nM. It also gave a GI50 (SW-620 colon) of under 10 nM, a TGI (SW-620 colon) of 10000 nM and a GI50 (SK-MEL-2 melanoma) of under 10 nM. It also gave a TGI (SK-MEL-2 melanoma) of 41.3 nM, a GI50 ([…]-0 renal) of 18.6 nM and a TGI (786-0 renal) of 77.6 nM. The GI50 (MDA-MB-231 breast) was 14.6 nM, the TGI (MDA-MB-231 breast) was 94.8 nM and the GI50 (NCI-H322M lung) was 13.9 nM. For the same molecule, the TGI (NCI-H322M lung) was 55.7 nM, the GI50 (OVCAR-3 ovarian) was under 10 nM and the TGI (OVCAR-3 ovarian) was 28.2 nM. It also gave a GI50 (SF-295 CNS) of 25.9 nM, a TGI (SF-295 CNS) of 81.9 nM and a GI50 (SNB-75 CNS) of 16 nM. For the same molecule, the TGI (SNB-75 CNS) was 360 nM, the GI50 (HCT-116 colon) was under 10 nM and the TGI (HCT-116 colon) was 26 nM. It also gave a GI50 (IGROV1 ovarian) of under 10 nM, a TGI (IGROV1 ovarian) of 13900 nM and a GI50 (SK-MEL-5 melanoma) of under 10 nM. For the same molecule, the TGI (SK-MEL-5 melanoma) was 41.4 nM, the GI50 (UACC-62 melanoma) was 11.9 nM and the TGI (UACC-62 melanoma) was 57.5 nM. The GI50 (EKVX NSCLC) was under 10 nM, the TGI (EKVX NSCLC) was 46.3 nM and the GI50 (SK-MEL-28 melanoma) was 19.6 nM. The TGI (SK-MEL-28 melanoma) was 67 nM, the GI50 (HOP-62 NSCLC) was under 10 nM and the TGI (HOP-62 NSCLC) was 48.3 nM. For the same molecule, the GI50 (MALME-3M melanoma) was under 10 nM, the TGI (MALME-3M melanoma) was 61.1 nM and the GI50 (K-562 leukemia) was under 10 nM. For the same molecule, the TGI (K-562 leukemia) was 10700 nM, the GI50 (PC-3 prostate) was under 10 nM and the TGI (PC-3 prostate) was 2260 nM. The GI50 (OVCAR-8 ovarian) was 20.8 nM, the TGI (OVCAR-8 ovarian) was 10700 nM and the GI50 (HL-60(TB) leukemia) was under 10 nM. It also gave a TGI (HL-60(TB) leukemia) of under 10 nM, a GI50 (NCI-H23 lung) of under 10 nM and a TGI (NCI-H23 lung) of 41.2 nM. It also gave a GI50 (SF-539 CNS) of under 10 nM, a TGI (SF-539 CNS) of 20.1 nM and a GI50 (COLO 205 colon) of under 10 nM. It also gave a TGI (COLO 205 colon) of 120 nM, a GI50 (KM12 colon) of under 10 nM and a TGI (KM12 colon) of 72.2 nM. It also gave a GI50 (HCC-2998 colon) of under 10 nM, a TGI (HCC-2998 colon) of 28.5 nM and a GI50 (A498 renal) of under 10 nM. The TGI (A498 renal) was 266 nM, the GI50 (U251 glioblastoma) was 12.6 nM and the TGI (U251 glioblastoma) was 209 nM. It also gave a GI50 (SNB-19 CNS) of 12.4 nM, a TGI (SNB-19 CNS) of 119 nM and a GI50 (HOP-92 NSCLC) of 19.5 nM. The TGI (HOP-92 NSCLC) was 78.7 nM, the GI50 (DU-145 prostate) was under 10 nM and the TGI (DU-145 prostate) was 48 nM. The GI50 (NCI-H522 lung) was under 10 nM, the TGI (NCI-H522 lung) was 33.7 nM and the GI50 (CCRF-CEM leukemia) was under 10 nM. For the same molecule, the TGI (CCRF-CEM leukemia) was 17.8 nM, the GI50 (M14 melanoma) was under 10 nM and the TGI (M14 melanoma) was 38.2 nM. It also gave a GI50 (NCI-H460 NSCLC) of under 10 nM, a TGI (NCI-H460 NSCLC) of 23.3 nM and a GI50 (MOLT-4 leukemia) of under 10 nM. For the same molecule, the TGI (MOLT-4 leukemia) was under 10 nM, the GI50 (HCT-15 colon) was 13.1 nM and the TGI (HCT-15 colon) was 99.3 nM. For the same molecule, the GI50 (UO-31 renal) was 21.3 nM, the TGI (UO-31 renal) was 91.6 nM and the GI50 (TK-10 renal) was 13.7 nM. It also gave a TGI (TK-10 renal) of 46.4 nM, a GI50 (A549 NSCLC) of 12 nM and a TGI (A549 NSCLC) of 16000 nM. For the same molecule, the GI50 (RPMI-8226 leukemia) was under 10 nM, the TGI (RPMI-8226 leukemia) was under 10 nM and the GI50 (CAKI-1 renal) was under 10 nM. It also gave a TGI (CAKI-1 renal) of 41 nM, a GI50 (OVCAR-5 ovarian) of 11 nM and a TGI (OVCAR-5 ovarian) of 58 nM. The GI50 (LOX IMVI melanoma) was under 10 nM, the TGI (LOX IMVI melanoma) was 20.5 nM and the GI50 (NCI-H226 lung) was under 10 nM. It also gave a TGI (NCI-H226 lung) of 57.5 nM, a GI50 (UACC-257 melanoma) of 25.3 nM and a TGI (UACC-257 melanoma) of 420 nM. It also gave a GI50 (SF-268 CNS) of 15.7 nM, a TGI (SF-268 CNS) of 175 nM and a GI50 (SR leukemia) of 11.7 nM. The TGI (SR leukemia) was 32.8 nM, the GI50 (NCI/ADR-RES ovarian) was 138 nM and the TGI (NCI/ADR-RES ovarian) was 3270 nM. It also gave a GI50 (MDA-MB-468 breast) of under 10 nM, a TGI (MDA-MB-468 breast) of 23.1 nM and a GI50 (MDA-MB-435 melanoma) of under 10 nM. For the same molecule, the TGI (MDA-MB-435 melanoma) was 583 nM, the GI50 (SN12C renal) was under 10 nM and the TGI (SN12C renal) was 54.6 nM. The GI50 (BT-549 breast) was 23.7 nM, the TGI (BT-549 breast) was 95.7 nM and the GI50 (SK-OV-3 ovarian) was under 10 nM. For the same molecule, the TGI (SK-OV-3 ovarian) was 1310 nM.
